Results from patent US9540343B2 (Gilead Sciences, Inc., priority 2011, dated 2017).

Columns and labels:
in vitro = test: in vitro
In short: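 Cytoprotection read-out: CellTiter-Glo chemiluminescence after 5 days at 37 °C of HIV-IIIb-infected MT-4 cells (m.o.i. 0.003) with compound in 10-point 3-fold dilutions, quadruplicate, 10% FBS. Cytotoxicity (CC50) measured identically without virus.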

HIV-IIIb = test: Test A: Antiviral assay in MT4 cells; assay type: cell-based, HIV-1; settings: Human immunodeficiency virus 1, IIIB, MT4, 120 h, read-out: % inhibition at 2 μM, percent inhibition of virus-induced cell killing, from dose response curve at 2 uM drug; MT-4 cells infected with HIV-IIIb, 5 days, CellTiter-Glo
[1] = human, uninfected MT-4 cells, CC50 (nM), same protocol as Test A, CellTiter-Glo

Row | SMILES | CC50 at 5 days (in vitro; [1]) | inhibition at 2 µM (HIV-IIIb) | CC50 at 5 days (in vitro; human, CC50 (nM), uninfected MT-4 cells, same protocol as Test A, CellTiter-Glo)
1 | NC(=O)c1cc(-c2cccnc2[C@H](Cc2cc(F)cc(F)c2)NC(=O)Cn2cc(C(N)=O)c(C(F)(F)F)n2)ccc1F [Example 312, (S)-1-(2-(1-(3-(3-carbamoyl-4-fluorophenyl)pyridin-2-yl)-2-(3,5-difluorophenyl)ethylamino)-2-oxoethyl)-3-(trifluoromethyl)-1H-pyrazole-4-carboxamide] | > 53200 nM | 2% | 
2 | NC(=O)c1cc(-c2cccnc2[C@H](Cc2cc(F)cc(F)c2)NC(=O)[C@@H]2C[C@H](c3ccccc3)CN2)ccc1F [Example 177, (2S,4R)—N—((S)-1-(3-(3-carbamoyl-4-fluorophenyl)pyridin-2-yl)-2-(3,5-difluorophenyl)ethyl)-4-phenylpyrrolidine-2-carboxamide] | 51700 nM | 0% | 
3 | NC(=O)c1cc(-c2cccnc2[C@H](Cc2cc(F)cc(F)c2)NC(=O)Cn2nc3c(c2C(F)(F)OCc2ccccn2)CCCC3)ccc1F [Example 143, (S)-5-(2-(1-(2-(3-(difluoro(pyridin-2-ylmethoxy)methyl)-4,5,6,7-tetrahydro-2H-indazol-2-yl)acetamido)-2-(3,5-difluorophenyl)ethyl)pyridin-3-yl)-2-fluorobenzamide] | 19900 nM | 10% | 
4 | NC(=O)c1cc(-c2ccc[n+]([O-])c2[C@H](Cc2cc(F)cc(F)c2)NC(=O)Cn2nc(C(F)(F)F)c3c2CS(=O)(=O)C3)ccc1F [Example 218, (S)-3-(3-carbamoyl-4-fluorophenyl)-2-(2-(3,5-difluorophenyl)-1-(2-(5,5-dioxido-3-(trifluoromethyl)-4,6-dihydro-1H-thieno[3,4-c]pyrazol-1-yl)acetamido)ethyl)pyridine 1-oxide] | > 53200 nM | 0% | 
5 | NC(=O)c1cc(-c2cccnc2[C@H](Cc2cc(F)cc(F)c2)NC(=O)CC2C(=O)Nc3cc(F)ccc32)ccc1F (stereo partly drawn) [Example 246, 5-(2-((1S)-2-(3,5-difluorophenyl)-1-(2-(6-fluoro-2-oxoindolin-3-yl)acetamido)ethyl)pyridin-3-yl)-2-fluorobenzamide] | 47900 nM | 1% | 
6 | CCN(CC)S(=O)(=O)c1ccc(-c2cccnc2[C@H](Cc2cc(F)cc(F)c2)NC(=O)Cn2nc(C(F)F)c3c2C(F)(F)C2CC32)cc1 (stereo partly drawn) [Example 116, (S)—N-(1-(3-(4-(N,N-diethylsulfamoyl)phenyl)-pyridin-2-yl)-2-(3,5-difluorophenyl)ethyl)-2-(3-(difluoromethyl)-5,6-dihydro-4,5-(methano)-6,6-difluoro-cyclopenta[c]pyrazol-1(4H)-yl)acetamide] | > 53200 nM | 72% | 
7 | CNc1ccc(-c2cccnc2[C@H](Cc2cc(F)cc(F)c2)NC(=O)Cn2nc(C(F)F)c3c2C(F)(F)CCC3(F)F)cn1 [Example 287E, (S)-2-(3-(difluoromethyl)-4,4,7,7-tetrafluoro-4,5,6,7-tetrahydro-1H-indazol-1-yl)-N-(2-(3,5-difluorophenyl)-1-(6′-(methylamino)-3,3′-bipyridin-2-yl)ethyl)acetamide] | 16000 nM | 98% | 
8 | Cc1cc(C)c2c(c1)C(CC(=O)N[C@@H](Cc1cc(F)cc(F)c1)c1ncccc1-c1ccc(F)c(C(N)=O)c1)C(=O)N2 (stereo partly drawn) [Example 205, 5-(2-((1S)-2-(3,5-difluorophenyl)-1-(2-(5,7-dimethyl-2-oxoindolin-3-yl)acetamido)ethyl)pyridin-3-yl)-2-fluorobenzamide] | 13100 nM | 12% | 
9 | O=C(Cn1nc(C(F)(F)F)c2c1CCCC2)N[C@@H](Cc1cc(F)cc(F)c1)c1nc[nH]c(=O)c1-c1ccc(Cl)cc1 [Example 301B, (S)—N-(1-(5-(4-chlorophenyl)-6-oxo-1,6-dihydropyrimidin-4-yl)-2-(3,5-difluorophenyl)ethyl)-2-(3-(trifluoromethyl)-4,5,6,7-tetrahydro-1H-indazol-1-yl)acetamide] | 5650 nM | 0% | 
10 | NC(=O)c1cc(-c2cccnc2[C@H](Cc2cc(F)cc(F)c2)NC(=O)Cn2cc(C(F)F)c(C(F)(F)F)n2)ccc1F [Example 350, (S)-5-(2-(1-(2-(4-(difluoromethyl)-3-(trifluoromethyl)-1H-pyrazol-1-yl)acetamido)-2-(3,5-difluorophenyl)ethyl)pyridin-3-yl)-2-fluorobenzamide] | 28100 nM | 10% | 
11 | CNC(=O)c1cc(F)cc(-c2cccnc2[C@H](Cc2cc(F)cc(F)c2)NC(=O)Cc2c[nH]c3ccc(F)cc23)c1 [Example 63, (S)-3-(2-(2-(3,5-difluorophenyl)-1-(2-(5-fluoro-1H-indol-3-yl)acetamido)ethyl)pyridin-3-yl)-5-fluoro-N-methylbenzamide] | 14800 nM | 22% | 
12 | NC(=O)c1cc(-c2cccnc2[C@H](Cc2cc(F)cc(F)c2)NC(=O)Cn2nc(C(F)(F)F)c3c2C(=O)CC3)ccc1F [Example 281C, (S)-5-(2-(2-(3,5-difluorophenyl)-1-(2-(6-oxo-3-(trifluoromethyl)-5,6-dihydrocyclopenta[c]pyrazol-1(4H)-yl)acetamido)ethyl)pyridin-3-yl)-2-fluorobenzamide] | 28300 nM | 5% | 
13 | NC(=O)c1cc(-c2cccnc2[C@H](Cc2cc(F)cc(F)c2)NC(=O)Cn2cc(C(F)(F)F)nc2C2CCCC2)ccc1F [Example 107E, (S)-5-(2-(1-(2-(2-cyclopentyl-4-(trifluoromethyl)-1H-imidazol-1-yl)acetamido)-2-(3,5-difluorophenyl)ethyl)pyridin-3-yl)-2-fluorobenzamide] | 42800 nM | 30% | 
14 | CNC(=O)c1nc2c(C)cccc2n1CC(=O)N[C@@H](Cc1cc(F)cc(F)c1)c1ncccc1-c1ccc(F)c(C(N)=O)c1 [Example 523, (S)-1-(2-(1-(3-(3-carbamoyl-4-fluorophenyl)pyridin-2-yl)-2-(3,5-difluorophenyl)ethylamino)-2-oxoethyl)-N,4-dimethyl-1H-benzo[d]imidazole-2-carboxamide] | 48800 nM | 24% | 
15 | COCc1cn(CC(=O)N[C@@H](Cc2cc(F)cc(F)c2)c2ncccc2-c2ccc(F)c(C(N)=O)c2)nc1C(F)(F)F [Example 361, (S)-5-(2-(2-(3,5-difluorophenyl)-1-(2-(4-(methoxymethyl)-3-(trifluoromethyl)-1H-pyrazol-1-yl)acetamido)ethyl)pyridin-3-yl)-2-fluorobenzamide] | > 53200 nM | 8% | 
16 | CN(C)C(=O)c1ccc(-c2cccnc2[C@H](Cc2cc(F)cc(F)c2)NC(=O)Cc2c[nH]c3ccc(O)cc23)cc1 [Example 47, (S)-4-(2-(2-(3,5-difluorophenyl)-1-(2-(5-hydroxy-1H-indol-3-yl)acetamido)ethyl)pyridin-3-yl)-N,N-dimethylbenzamide] | > 53000 nM | 59% | 
17 | Cc1cc(-c2cccnc2[C@H](Cc2cc(F)cc(F)c2)NC(=O)Cn2nc(C(F)(F)F)c3c2CCCC3)ccc1F [Example 65, (S)—N-(2-(3,5-difluorophenyl)-1-(3-(4-fluoro-3-methylphenyl)pyridin-2-yl)ethyl)-2-(3-(trifluoromethyl)-4,5,6,7-tetrahydro-1H-indazol-1-yl)acetamide] | 11100 nM | 33% | 
18 | CC(=O)c1c(C)n(CC(=O)N[C@@H](Cc2cc(F)cc(F)c2)c2ncccc2-c2cccc(C(N)=O)c2)c2ccccc12 [Example 495, (S)-3-(2-(1-(2-(3-acetyl-2-methyl-1H-indol-1-yl)acetamido)-2-(3,5-difluorophenyl)ethyl)pyridin-3-yl)benzamide] |  | 85% | 15500 nM
19 | NC(=O)c1cc(-c2cccnc2[C@H](Cc2cc(F)cc(F)c2)NC(=O)Cn2nc(C(F)(F)OCc3ccccn3)c3c2CCCC3)ccc1F [Example 135, (S)-5-(2-(1-(2-(3-(difluoro(pyridin-2-ylmethoxy)methyl)-4,5,6,7-tetrahydro-1H-indazol-1-yl)acetamido)-2-(3,5-difluorophenyl)ethyl)pyridin-3-yl)-2-fluorobenzamide] | 21100 nM | 53% | 
20 | O=C(Cn1nc(C(F)F)c2c1C(F)(F)C1CC21)N[C@@H](Cc1cc(F)cc(F)c1)c1ncccc1-c1ccc(S(=O)(=O)NC2CCCCC2)cc1 (stereo partly drawn) [Example 98, (S)—N-(1-(3-(4-(N-cyclohexylsulfamoyl)phenyl)-pyridin-2-yl)-2-(3,5-difluorophenyl)ethyl)-2-(3-(difluoromethyl)-5,6-dihydro-4,5-(methano)-6,6-difluoro-cyclopenta[c]pyrazol-1(4H)-yl)acetamide] | 18000 nM | 13% | 
21 | NC(=O)c1cc(-c2cccnc2[C@H](Cc2cc(F)cc(F)c2)NC(=O)Cc2n[nH]c3ccc(C(F)(F)F)cc23)ccc1F [Example 141G, (S)-5-(2-(2-(3,5-difluorophenyl)-1-(2-(5-(trifluoromethyl)-1H-indazol-3-yl)acetamido)ethyl)pyridin-3-yl)-2-fluorobenzamide] | 21800 nM | 4% | 
22 | NC(=O)c1cc(-c2cccnc2[C@H](Cc2cccc(F)c2)NC(=O)Cn2c(=O)[nH]c3ccccc32)ccc1F [Example 326, (S)-2-fluoro-5-(2-(2-(3-fluorophenyl)-1-(2-(2-oxo-2,3-dihydro-1H-benzo[d]imidazol-1-yl)acetamido)ethyl)pyridin-3-yl)benzamide] | > 53200 nM | 27% | 
23 | COCc1ccc(-c2cccnc2[C@H](Cc2cc(F)cc(F)c2)NC(=O)Cn2nc(C(F)F)c3c2C(F)(F)C2CC32)cc1 (stereo partly drawn) [Example 195, 2-(3-(difluoromethyl)-5,5-difluoro-3b,4,4a,5-tetrahydro-1H-cyclopropa[3,4]cyclopenta[1,2-c]pyrazol-1-yl)-N—((S)-2-(3,5-difluorophenyl)-1-(3-(4-(methoxymethyl)phenyl)pyridin-2-yl)ethyl)acetamide] | 23000 nM | 85% | 
